{
  "source": "patent US20230038462A1",
  "about": "“TRANSDERMAL PENETRANT FORMULATIONS CONTAINING CANNABIDIOL” (DYVE BIOSCIENCES, INC., priority 2019, published 2023)",
  "origin": "cited, not measured here",
  "data": [
    {"smiles": "C=C(C)[C@@H]1CCC(C)=C[C@H]1c1c(O)cc(CCCCC)cc1O", "note": "[Cannabidiol]", "values": [
      {"measurement": "side effects of long-term use", "value": "somnolence, decreased appetite, diarrhea, fatigue, malaise, weakness, and sleeping problems"}
    ]}
  ]
}
